Measurements published in patent publication US20260216400A1, “CELL-[…] MOLECULE IMPARTING PROTEIN ADHESION […] CELLS” (THE UNIVERSITY OF OSAKA, priority 2023, published 2026).

Tests used:
Assay in all cases: Binding of FITC-labeled collagen-binding peptides to coated wells (Example 6)
type IV collagen = settings: 37° C., 3 hours
Protocol: (§1) The selectivity of collagen-binding peptides for components of the extracellular matrix was investigated. […] After washing, the fluorescence intensity was measured using a confocal laser scanning microscope.

laminin = settings: 37° C., 3 hours
Protocol: as §1

type I collagen = type I collagen (Homo sapiens, UniProt P02452+P08123)
type I collagen, sequence (P08123 80-1119): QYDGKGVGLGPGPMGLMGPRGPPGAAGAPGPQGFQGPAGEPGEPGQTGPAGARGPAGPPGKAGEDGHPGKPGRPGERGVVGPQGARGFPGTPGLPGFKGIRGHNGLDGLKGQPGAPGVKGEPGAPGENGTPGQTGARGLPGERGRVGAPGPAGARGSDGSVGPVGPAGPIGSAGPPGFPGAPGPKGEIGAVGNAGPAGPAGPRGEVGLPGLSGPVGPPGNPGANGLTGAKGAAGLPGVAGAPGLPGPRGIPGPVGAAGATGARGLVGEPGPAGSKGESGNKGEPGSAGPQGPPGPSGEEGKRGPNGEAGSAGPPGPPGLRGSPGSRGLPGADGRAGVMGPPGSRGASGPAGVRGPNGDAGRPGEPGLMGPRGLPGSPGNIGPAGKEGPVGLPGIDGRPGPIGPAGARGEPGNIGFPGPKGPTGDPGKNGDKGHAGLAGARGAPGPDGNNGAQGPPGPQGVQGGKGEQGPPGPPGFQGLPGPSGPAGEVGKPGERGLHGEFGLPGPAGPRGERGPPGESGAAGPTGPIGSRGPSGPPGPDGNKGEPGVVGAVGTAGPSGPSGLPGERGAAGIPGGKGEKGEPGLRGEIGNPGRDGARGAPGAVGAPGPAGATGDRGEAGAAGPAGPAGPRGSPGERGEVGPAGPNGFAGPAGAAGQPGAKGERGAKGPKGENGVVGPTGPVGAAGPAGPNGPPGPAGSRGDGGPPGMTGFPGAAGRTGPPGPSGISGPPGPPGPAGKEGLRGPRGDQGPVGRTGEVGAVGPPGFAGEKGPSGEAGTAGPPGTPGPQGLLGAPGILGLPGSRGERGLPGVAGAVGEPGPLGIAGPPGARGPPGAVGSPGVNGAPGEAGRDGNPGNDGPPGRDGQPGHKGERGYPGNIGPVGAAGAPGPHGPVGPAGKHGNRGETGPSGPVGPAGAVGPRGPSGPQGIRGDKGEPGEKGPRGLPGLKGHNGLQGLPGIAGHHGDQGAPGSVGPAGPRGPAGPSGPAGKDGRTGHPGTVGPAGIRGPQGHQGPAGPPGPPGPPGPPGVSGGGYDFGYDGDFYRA
type I collagen, sequence (P02452 162-1218): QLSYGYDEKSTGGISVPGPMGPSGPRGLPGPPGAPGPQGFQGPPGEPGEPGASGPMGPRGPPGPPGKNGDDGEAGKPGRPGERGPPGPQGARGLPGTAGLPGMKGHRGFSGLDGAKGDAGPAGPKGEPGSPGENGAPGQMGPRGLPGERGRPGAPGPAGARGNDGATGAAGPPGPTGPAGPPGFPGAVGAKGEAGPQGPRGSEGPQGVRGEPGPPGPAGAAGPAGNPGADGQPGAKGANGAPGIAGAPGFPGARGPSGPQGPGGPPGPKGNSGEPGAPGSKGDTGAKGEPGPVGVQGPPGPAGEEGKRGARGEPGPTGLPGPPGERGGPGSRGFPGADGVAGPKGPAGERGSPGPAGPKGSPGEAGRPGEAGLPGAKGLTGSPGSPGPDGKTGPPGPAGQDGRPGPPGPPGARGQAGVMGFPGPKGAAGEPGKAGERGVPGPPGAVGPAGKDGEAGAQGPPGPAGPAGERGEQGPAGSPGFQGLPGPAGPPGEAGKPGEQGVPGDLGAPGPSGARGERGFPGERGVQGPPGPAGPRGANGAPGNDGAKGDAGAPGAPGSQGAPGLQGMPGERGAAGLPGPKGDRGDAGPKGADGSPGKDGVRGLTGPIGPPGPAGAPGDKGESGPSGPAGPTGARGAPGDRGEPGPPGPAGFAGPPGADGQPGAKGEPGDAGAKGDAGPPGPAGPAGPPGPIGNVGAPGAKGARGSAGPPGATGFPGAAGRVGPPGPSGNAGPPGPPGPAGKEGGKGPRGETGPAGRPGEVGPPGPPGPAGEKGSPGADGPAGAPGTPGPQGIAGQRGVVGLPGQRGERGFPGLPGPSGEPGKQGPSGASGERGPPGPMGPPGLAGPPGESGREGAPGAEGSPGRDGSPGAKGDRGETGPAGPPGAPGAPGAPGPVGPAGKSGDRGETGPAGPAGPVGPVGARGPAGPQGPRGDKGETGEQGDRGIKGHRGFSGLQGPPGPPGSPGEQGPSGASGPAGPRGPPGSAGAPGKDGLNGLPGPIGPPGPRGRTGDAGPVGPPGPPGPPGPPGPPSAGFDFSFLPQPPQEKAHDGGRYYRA

## SYIRIADNTNIT
Type IV collagen
  binding to type IV collagen (fluorescence intensity): in a concentration-dependent manner
laminin
  binding to laminin (fluorescence intensity): in a concentration-dependent manner
Type I collagen; 100 μM (box in FIG. 6), type I collagen, type IV collagen, laminin wells
  fluorescence intensity compared between peptides: stronger than that of TKKTLRT
Type I collagen; coated wells, 37° C., 3 hours
  binding to type I collagen (fluorescence intensity): in a concentration-dependent manner
Type I collagen; type I collagen, type IV collagen, laminin
  selectivity for components of the extracellular matrix (order): type I collagen>type IV collagen>laminin

## TKKTLRT
Type IV collagen
  binding to type IV collagen (fluorescence intensity): in a concentration-dependent manner
laminin
  binding to laminin (fluorescence intensity): in a concentration-dependent manner
